Experimental data as given in BindingDB's records for doi:10.1007/s00044-005-0131-1 (Universite De Lille, 2005).
Values joined by “and” are separate entries in the source; they are usually repeats but may differ in a detail not shown here. Equal entries are not always repeated.

Molecular target: Sigma non-opioid intracellular receptor 1 (Cavia porcellus, UniProt Q60492)
Assay: Binding Assay
Source text: Binding assay using sigma receptors.

Chain of Sigma non-opioid intracellular receptor 1 (Q60492 whole entry): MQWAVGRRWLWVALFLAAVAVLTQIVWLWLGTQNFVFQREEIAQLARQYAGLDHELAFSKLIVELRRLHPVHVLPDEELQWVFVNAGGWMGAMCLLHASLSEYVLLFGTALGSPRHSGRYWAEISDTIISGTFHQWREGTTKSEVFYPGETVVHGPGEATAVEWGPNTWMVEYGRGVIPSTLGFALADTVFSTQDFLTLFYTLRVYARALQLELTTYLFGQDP

| Ki | Compound |
| --- | --- |
| > 1000 nM | CCCc1ccc2c(c1)sc(=O)n2CCN1C[C@]2(C)CCC[C@]2(C)C1 [3-{2-[(3aR,6aS)-3a,6a-dimethyl-octahydrocyclopenta[c]pyrrol-2-yl]ethyl}-6-propyl-2,3-dihydro-1,3-benzothiazol-2-one, 13] |
| 2.9 nM and 13 nM | C=C(CC)c1ccc2c(c1)sc(=O)n2CCCCN1CCCCC1 [6-(but-1-en-2-yl)-3-[4-(piperidin-1-yl)butyl]-2,3-dihydro-1,3-benzothiazol-2-one, 12] |
